ChEMBL document CHEMBL1130500 (Bioorg Med Chem Lett, 1997)

Legend:
[1] = molecular target: T1, Cholecystokinin receptor type A (Rattus norvegicus, UniProt P30551)
T1 sequence (P30551 whole entry): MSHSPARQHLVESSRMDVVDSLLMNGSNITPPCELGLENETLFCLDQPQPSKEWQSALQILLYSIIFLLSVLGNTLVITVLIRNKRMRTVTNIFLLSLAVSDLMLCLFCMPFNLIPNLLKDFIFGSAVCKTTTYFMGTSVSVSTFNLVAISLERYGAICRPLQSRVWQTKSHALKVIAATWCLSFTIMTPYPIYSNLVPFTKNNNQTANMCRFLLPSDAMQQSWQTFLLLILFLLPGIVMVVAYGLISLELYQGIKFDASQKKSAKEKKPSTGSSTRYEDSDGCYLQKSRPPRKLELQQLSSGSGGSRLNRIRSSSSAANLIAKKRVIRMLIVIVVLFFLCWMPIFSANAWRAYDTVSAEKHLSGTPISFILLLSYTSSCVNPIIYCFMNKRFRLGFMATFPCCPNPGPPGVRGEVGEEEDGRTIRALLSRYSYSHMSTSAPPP

[2] = molecular target: T2, Cholecystokinin receptor type A (Rattus norvegicus) (UniProt P30551); settings: 10 uM
T2 sequence (whole entry): T1 sequence (P30551 whole entry)

[3] = molecular target: T3, Gastrin/cholecystokinin type B receptor (Mus musculus) (UniProt P56481); format: tissue-based; settings: Cerebral cortex; 10 uM
T3 sequence (whole entry): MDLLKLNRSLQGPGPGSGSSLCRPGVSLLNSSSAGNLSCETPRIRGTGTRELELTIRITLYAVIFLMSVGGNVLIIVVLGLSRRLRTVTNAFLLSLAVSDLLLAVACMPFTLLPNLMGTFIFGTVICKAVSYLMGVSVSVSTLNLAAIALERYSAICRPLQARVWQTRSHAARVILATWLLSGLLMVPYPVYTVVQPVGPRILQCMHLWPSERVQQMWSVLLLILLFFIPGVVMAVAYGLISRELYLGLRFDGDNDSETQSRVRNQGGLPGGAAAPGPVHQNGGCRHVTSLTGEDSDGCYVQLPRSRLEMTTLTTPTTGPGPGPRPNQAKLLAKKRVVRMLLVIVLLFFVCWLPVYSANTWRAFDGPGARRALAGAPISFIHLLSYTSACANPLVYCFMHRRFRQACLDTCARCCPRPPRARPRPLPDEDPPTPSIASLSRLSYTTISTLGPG

[4] = molecular target: T3, Gastrin/cholecystokinin type B receptor (Mus musculus); format: tissue-based; settings: Cerebral cortex; 1 uM
[5] = molecular target: T2, Cholecystokinin receptor type A (Rattus norvegicus); settings: 1 uM

Structure (SMILES) | IC50 [1] [nM] | other results
C[C@@](Cc1c[nH]c2ccccc12)(NC(=O)OC1C2CC3CC(C2)CC1C3)C(=O)N[C@H](CO)[C@H](O)c1ccccc1 (some centres undefined) | 681 | –
O=C(O)CCC(=O)N[C@@H](CNC(=O)C1(NC(=O)OC2C3CC4CC(C3)CC2C4)Cc2ccccc2C1)c1ccccc1 (some centres undefined) | 1350 | –
O=C(NC1(C(=O)NCCc2ccccc2)Cc2ccccc2C1)OC1C2CC3CC(C2)CC1C3 (centres undefined) | – | inhibition [2]: 22%
CN(C)C(=O)c1oc2ccccc2c1CC(C)(NC(=O)OC1C2CC3CC(C2)CC1C3)C(=O)NCCc1ccccc1 (centres undefined) | 65 | –
Cc1noc(C)c1-c1nc(CC(C)(NC(=O)OC2C3CC4CC(C3)CC2C4)C(=O)NCCc2ccccc2)no1 (centres undefined) | – | inhibition [2]: 20%; inhibition [3]: 28%
CC(CCCN)(NC(=O)OC1C2CC3CC(C2)CC1C3)C(=O)NCCc1ccccc1 (centres undefined) | – | inhibition [4]: 3%
CC(Cc1ccc2c(c1)C(C)(C)CCC2(C)C)(NC(=O)OC1C2CC3CC(C2)CC1C3)C(=O)NCCc1ccccc1 (centres undefined) | 19800 | –
O=C(CCC(=O)OCc1ccccc1)N[C@@H](CNC(=O)C(Cc1c[nH]c2ccc(F)cc12)NC(=O)OC1C2CC3CC(C2)CC1C3)c1ccccc1 (some centres undefined) | 583 | –
Cc1noc(C)c1CC(C)(NC(=O)OC1C2CC3CC(C2)CC1C3)C(=O)NCCc1ccccc1 (centres undefined) | 6940 | –
COc1ccc(CC(C)(NC(=O)OC2C3CC4CC(C3)CC2C4)C(=O)N[C@H](CO)[C@H](O)c2ccccc2)cc1 (some centres undefined) | – | inhibition [5]: 43%
CC(CCCN1C(=O)c2ccccc2C1=O)(NC(=O)OC1C2CC3CC(C2)CC1C3)C(=O)NCCc1ccccc1 (centres undefined) | – | inhibition [4]: 8%
CC(Cc1c[nH]c2ccc(F)cc12)(NC(=O)OC1C2CC3CC(C2)CC1C3)C(=O)NC[C@H](NC(=O)CCC(=O)OCc1ccccc1)c1ccccc1 (some centres undefined) | 2650 | –

Now from value to molecule, other results behind:

IC50 [1] [nM] | Structure (SMILES) | other results
2180 | CC(Cc1c[nH]c2ccc(F)cc12)(NC(=O)OC1C2CC3CC(C2)CC1C3)C(=O)NC[C@H](NC(=O)CCC(=O)O)c1ccccc1 (some centres undefined) | –
1910 | O=C(O)CCC(=O)N[C@@H](CNC(=O)C(Cc1c[nH]c2ccc(F)cc12)NC(=O)OC1C2CC3CC(C2)CC1C3)c1ccccc1 (some centres undefined) | –
5350 | CC(=O)Nc1nc(CC(C)(NC(=O)OC2C3CC4CC(C3)CC2C4)C(=O)NCCc2ccccc2)cs1 (centres undefined) | –
7220 | O=C(NC1(C(=O)NCCc2ccccc2)CC2(Cc3cccc4cccc(c34)C2)C1)OC1C2CC3CC(C2)CC1C3 (centres undefined) | –
616 | CC(Cc1ccc(Oc2ccccc2)cc1)(NC(=O)OC1C2CC3CC(C2)CC1C3)C(=O)N[C@H](CO)[C@H](O)c1ccccc1 (some centres undefined) | –
2860 | C[C@](Cc1c[nH]c2ccc(F)cc12)(NC(=O)OC1C2CC3CC(C2)CC1C3)C(=O)NC[C@H](NC(=O)CCC(=O)O)c1ccccc1 (some centres undefined) | –
